In PMC12217463, “Functional and structural analyses of amino acid sequence variation in PDC β-lactamase reveal different mechanistic pathways toward cefiderocol resistance in Pseudomonas aeruginosa” (Antimicrobial Agents and Chemotherapy, 2025):
Converted amounts (≈) assume the structure as drawn.

Legend:
PAO1 + blaPDC A200T = experiment: MIC, broth microdilution; format: cell-based; conditions: Pseudomonas aeruginosa
From the text: (§1) We took advantage of a previously constructed and characterized laboratory collection of recombinant P. aeruginosa PAO1 isolates expressing different blaPDC variants, but specifically enriched for this work with additional variants, following the previously described methodology ([17]). […] The final collection comprised 40 recombinant isolates (20 in PAO1 and 20 in PAO ΔpiuC) producing the wild-type PDC-1 variant from PAO1 and 19 derivatives carrying specific amino acid substitutions previously associated with the development of resistance to ceftazidime/avibactam, ceftolozane/tazobactam, or cefiderocol: T70I, F121L, P153L, G156D, A200T, G202S, ΔG202-E219, G214R, P215L, P215S, ΔP215-G222, D217N, E219K, E219G, E219D, S226ins, L293P, F121L + E219K, and F121L + G222S.
(§2) The MICs of ceftazidime, ceftazidime/avibactam, ceftolozane/tazobactam, cefepime, and cefiderocol were determined in triplicate, for all isolates, by reference broth microdilution assays. Avibactam and tazobactam were fixed at 4 mg/L. All assays were performed using cation-adjusted Mueller-Hinton broth (CAMHB), except for cefiderocol, which was determined in all cases using iron-depleted CAMHB, prepared according to CLSI M100 guidelines ([40]). EUCAST v.15.0 clinical breakpoints and guidelines (http://www.eucast.org/clinical_breakpoints/) were used for reference purposes. Reference strains Escherichia coli ATCC 25922, Klebsiella pneumoniae ATCC 700603, and P. aeruginosa ATCC 27853 were used as controls.

PAO1 + blaPDC D217N = experiment: MIC, broth microdilution; format: cell-based; conditions: Pseudomonas aeruginosa
From the text: as §1, §2

PAO1 + blaPDC E219D = experiment: MIC, broth microdilution; format: cell-based; conditions: Pseudomonas aeruginosa
From the text: as §1, §2

PAO1 + blaPDC E219K = experiment: MIC, broth microdilution; format: cell-based; conditions: Pseudomonas aeruginosa
From the text: as §1, §2

[1] = system: PAO1 + blaPDC F121L + E219K; experiment: MIC, broth microdilution; format: cell-based; conditions: Pseudomonas aeruginosa
From the text: as §1, §2

PAO1 + blaPDC F121L = experiment: MIC, broth microdilution; format: cell-based; conditions: Pseudomonas aeruginosa
From the text: as §1, §2

PAO1 + blaPDC G156D = experiment: MIC, broth microdilution; format: cell-based; conditions: Pseudomonas aeruginosa
From the text: as §1, §2

PAO1 + blaPDC G202S = experiment: MIC, broth microdilution; format: cell-based; conditions: Pseudomonas aeruginosa
From the text: as §1, §2

PAO1 + blaPDC G214R = experiment: MIC, broth microdilution; format: cell-based; conditions: Pseudomonas aeruginosa
From the text: as §1, §2

PAO1 + blaPDC L293P = experiment: MIC, broth microdilution; format: cell-based; conditions: Pseudomonas aeruginosa
From the text: as §1, §2

PAO1 + blaPDC P153L = experiment: MIC, broth microdilution; format: cell-based; conditions: Pseudomonas aeruginosa
From the text: as §1, §2

PAO1 + blaPDC P215L = experiment: MIC, broth microdilution; format: cell-based; conditions: Pseudomonas aeruginosa
From the text: as §1, §2

PAO1 + blaPDC P215S = experiment: MIC, broth microdilution; format: cell-based; conditions: Pseudomonas aeruginosa
From the text: as §1, §2

PAO1 + blaPDC S226ins = experiment: MIC, broth microdilution; format: cell-based; conditions: Pseudomonas aeruginosa, avibactam and tazobactam fixed at 4 mg/L, FDC in iron-depleted CAMHB
From the text: as §1, §2

PAO1 + blaPDC T70I = experiment: MIC, broth microdilution; format: cell-based; conditions: Pseudomonas aeruginosa
From the text: as §1, §2

PAO1 + blaPDC ∆P215-G222 = experiment: MIC, broth microdilution; format: cell-based; conditions: Pseudomonas aeruginosa, avibactam and tazobactam fixed at 4 mg/L, FDC in iron-depleted CAMHB
From the text: as §1, §2

PAO1 + blaPDC-1 (WT) = experiment: MIC, broth microdilution; format: cell-based; conditions: Pseudomonas aeruginosa, avibactam and tazobactam fixed at 4 mg/L, FDC in iron-depleted CAMHB
From the text: as §1, §2

PAO1 = experiment: MIC, broth microdilution; format: cell-based; conditions: Pseudomonas aeruginosa; PAO1 wild type, no plasmid-borne PDC; avibactam and tazobactam fixed at 4 mg/L; FDC in iron-depleted CAMHB
From the text: as §1, §2

[2] = system: PAO1 + blaPDC F121L + G220S; experiment: MIC, broth microdilution; format: cell-based; conditions: Pseudomonas aeruginosa
[3] = system: PAO ΔpiuC producing PDC D217N; experiment: Cefiderocol MIC, iron uptake-deficient host; format: cell-based; conditions: Pseudomonas aeruginosa
From the text: as §1, §2

[4] = system: PAO ΔpiuC producing PDC F121L + G220S; experiment: Cefiderocol MIC, iron uptake-deficient host; format: cell-based; conditions: Pseudomonas aeruginosa
From the text: as §1, §2

[5] = system: PAO ΔpiuC producing PDC G156D; experiment: Cefiderocol MIC, iron uptake-deficient host; format: cell-based; conditions: Pseudomonas aeruginosa
From the text: as §1, §2

[6] = system: PAO ΔpiuC producing PDC P153L; experiment: Cefiderocol MIC, iron uptake-deficient host; format: cell-based; conditions: Pseudomonas aeruginosa
From the text: as §1, §2

[7] = system: PAO ΔpiuC producing PDC S226ins; experiment: Cefiderocol MIC, iron uptake-deficient host; format: cell-based; conditions: Pseudomonas aeruginosa
From the text: as §1, §2

[8] = system: PAO1 producing the Ω-loop variants ∆P215-G222, E219K, and F121L + E219K; experiment: MIC, group of Ω-loop variants in PAO1; format: cell-based; conditions: Pseudomonas aeruginosa; range over PAO1 producing ∆P215-G222, E219K and F121L + E219K
From the text: as §1
(§3) The MICs of ceftazidime, ceftazidime/avibactam, ceftolozane/tazobactam, cefepime, and cefiderocol were determined in triplicate, for all isolates, by reference broth microdilution assays. Avibactam and tazobactam were fixed at 4 mg/L. All assays were performed using cation-adjusted Mueller-Hinton broth (CAMHB), except for cefiderocol, which was determined in all cases using iron-depleted CAMHB, prepared according to CLSI M100 guidelines ([40]). EUCAST v.15.0 clinical breakpoints and guidelines (http://www.eucast.org/clinical_breakpoints/) were used for reference purposes. […]

[9] = system: PAO ΔpiuC producing the ∆P215-G222, E219K, F121L + E219K, and L293P variants; experiment: MIC, group of variants in PAO ΔpiuC; format: cell-based; conditions: Pseudomonas aeruginosa
From the text: as §1, §3

[10] = system: P. aeruginosa isolates overproducing PDC variants; conditions: clinical strains, values generally remain below; cited from earlier work
PDC-1 (WT) = PDC-1 (WT) (Pseudomonas aeruginosa, UniProt P24735); experiment: Steady-state kinetics of purified β-lactamase
PDC E219K = PDC E219K (Pseudomonas aeruginosa, UniProt P24735, E247K); experiment: Steady-state kinetics of purified β-lactamase; conditions: for kcat: direct hydrolysis at substrate concentration at least three times the Km; for Ratio for PDC E219K/PDC-1: ratio of kcat/Km (fold change in catalytic efficiency)
PDC L293P = PDC L293P (Pseudomonas aeruginosa, UniProt P24735, L320P); experiment: Steady-state kinetics of purified β-lactamase; conditions: for kcat: direct hydrolysis at substrate concentration at least three times the Km

CC(C)(O/N=C(\C(=O)N[C@@H]1C(=O)N2C(C(=O)[O-])=C(C[N+]3(CCNC(=O)c4ccc(O)c(O)c4Cl)CCCC3)CS[C@H]12)c1csc(N)n1)C(=O)O [FDC, cefiderocol] showed an MIC (PAO1 + blaPDC A200T) of 0.5 µg/mL (≈ 0.665 µM), an MIC (PAO1 + blaPDC D217N) of 0.5 µg/mL (≈ 0.665 µM) and an MIC (PAO1 + blaPDC E219D) of 0.5 µg/mL (≈ 0.665 µM). It also gave an MIC (PAO1 + blaPDC E219K) of 4 µg/mL (≈ 5.32 µM), an MIC [1] of 4 µg/mL (≈ 5.32 µM) and an MIC (PAO1 + blaPDC F121L) of 0.5 µg/mL (≈ 0.665 µM). The MIC (PAO1 + blaPDC G156D) was 0.5 µg/mL (≈ 0.665 µM), the MIC (PAO1 + blaPDC G202S) was 0.5 µg/mL (≈ 0.665 µM) and the MIC (PAO1 + blaPDC G214R) was 1 µg/mL (≈ 1.33 µM). For the same compound, the MIC (PAO1 + blaPDC L293P) was 4 µg/mL (≈ 5.32 µM), the MIC (PAO1 + blaPDC P153L) was 0.5 µg/mL (≈ 0.665 µM) and the MIC (PAO1 + blaPDC P215L) was 0.5 µg/mL (≈ 0.665 µM). It also gave an MIC (PAO1 + blaPDC P215S) of 0.5 µg/mL (≈ 0.665 µM), an MIC (PAO1 + blaPDC S226ins) of 0.5 µg/mL and an MIC (PAO1 + blaPDC T70I) of 0.5 µg/mL (≈ 0.665 µM). For the same compound, the MIC (PAO1 + blaPDC ∆P215-G222) was 2 µg/mL, the MIC (PAO1 + blaPDC-1 (WT)) was 0.25 µg/mL and the MIC (PAO1) was 0.125 µg/mL. It also gave an MIC [2] of 0.25 µg/mL (≈ 0.332 µM), an MIC [3] of 8 µg/mL (≈ 10.6 µM) and an MIC [4] of 8 µg/mL (≈ 10.6 µM). For the same compound, the MIC [5] was 8 µg/mL (≈ 10.6 µM), the MIC [6] was 8 µg/mL (≈ 10.6 µM) and the MIC [7] was 8 µg/mL (≈ 10.6 µM). For the same compound, the MIC [8] was 2 to 4 µg/mL, the MIC [9] was 32 to 64 µg/mL (≈ 42.5 to 85.1 µM) and the MIC [10] was “below 2 mg/L”. The kcat (PDC-1 (WT); PDC-1 (WT), direct hydrolysis at substrate concentration at least three times the Km, 10 mM PBS, pH 7.4, room temperature) was 0.0036 s⁻¹, the Ratio (PDC-1 (WT); kcat/Km relative to PDC-1 (reference = 1)) was 1 and the “increase in kcat values” (PDC E219K; PDC E219K relative to PDC-1) was “≈ 125 fold”. The Km (PDC E219K; PDC E219K, antibiotics: determined as Ki app with nitrocefin as reporter substrate, 10 mM PBS, pH 7.4, room temperature) was 466 ± 120 µM, the kcat (PDC E219K; PDC E219K, 10 mM PBS, pH 7.4, room temperature, listed as Cefiderocol) was 0.45 ± 0.03 s⁻¹ and the kcat (PDC E219K; PDC E219K, 10 mM PBS, pH 7.4, room temperature, listed as cefiderocol) was 0.45 s⁻¹. The “Ratio for PDC E219K/PDC-1” value (PDC E219K; listed as Cefiderocol) was 24.00, the “Ratio for PDC E219K/PDC-1” value (PDC E219K; listed as cefiderocol) was “≈ 24” and the “improvement in substrate binding affinity (Km decrease)” value (PDC L293P; PDC L293P relative to PDC-1) was “≈ 32 fold”. For the same compound, the Km (PDC L293P; PDC L293P, antibiotics: determined as Ki app with nitrocefin as reporter substrate, 10 mM PBS, pH 7.4, room temperature) was 2.69 ± 0.1 µM, the kcat (PDC L293P; PDC L293P, 10 mM PBS, pH 7.4, room temperature, listed as Cefiderocol) was 0.0036 ± 0.0001 s⁻¹ and the kcat (PDC L293P; PDC L293P, 10 mM PBS, pH 7.4, room temperature, listed as cefiderocol) was 0.0036 s⁻¹. For the same compound, the “Ratio for PDC L293P/PDC-1” value (PDC L293P; ratio of kcat/Km (fold change in catalytic efficiency)) was 33.75.
